Assay results reported in ChEMBL document CHEMBL3045251, “Ethephon elicits protection against Erysiphe necator in grapevine” (2008).
Calls of active or inactive are those of the source. The rule behind the calls is not given here.

Experiments:
[1] = system: Vitis vinifera; assay: Induction of trans-stilbenes in Vitis vinifera cv. Cabernet Sauvignon foliar cuttings at 0.5 g/L measured after 20 to 80 hr post dose by fluorimetry; format: functional, organism-based
[2] = system: Vitis vinifera; assay: Induction of trans-resveratrol accumulation in Vitis vinifera cv. Cabernet Sauvignon foliar cuttings assessed per dry weight of plant at 0.5 g/L measured after 24 to 72 hr post dose by fluorimetry; format: functional
[3] = system: Vitis vinifera; assay: Increase in beta-1,3- glucanase gene expression in Vitis vinifera cv. Cabernet Sauvignon foliar cuttings at 0.5 g/L measured after 12 to 24 hr post dose by RTq-PCR method relative to untreated control; format: functional
[4] = system: Vitis vinifera; assay: Increase in polygalacturonase-inhibiting protein gene expression in Vitis vinifera cv. Cabernet Sauvignon foliar cuttings at 0.5 g/L measured after 12 to 24 hr post dose by RTq-PCR method relative to untreated control; format: functional
[5] = system: Vitis vinifera; assay: Increase in […] protease inhibitor gene expression in Vitis vinifera cv. Cabernet Sauvignon foliar cuttings at 0.5 g/L measured after 12 to 72 hr post dose by RTq-PCR method relative to untreated control; format: functional
[6] = system: Vitis vinifera; assay: Induction of delta-viniferin accumulation in Vitis vinifera cv. Cabernet Sauvignon foliar cuttings assessed per dry weight of plant at 0.5 g/L measured after 72 hr post dose by fluorimetry; format: functional
[7] = system: Vitis vinifera; assay: Increase in phenylalanine ammonia lyase gene expression in Vitis vinifera cv. Cabernet Sauvignon foliar cuttings at 0.5 g/L measured after 6 hr post dose by RTq-PCR method relative to untreated control; format: functional
[8] = system: Vitis vinifera; assay: Increase in phenylalanine stilbene synthase gene expression in Vitis vinifera cv. Cabernet Sauvignon foliar cuttings at 0.5 g/L measured after 6 hr post dose by RTq-PCR method relative to untreated control; format: functional
[9] = system: Vitis vinifera; assay: Induction of trans-piceid accumulation in Vitis vinifera cv. Cabernet Sauvignon foliar cuttings assessed per dry weight of plant at 0.5 g/L measured after 72 hr post dose by fluorimetry; format: functional
[10] = system: Vitis vinifera; assay: Increase in […] class IV chitinase gene expression in Vitis vinifera cv. Cabernet Sauvignon foliar cuttings at 0.5 g/L measured after 6 hr post dose by RTq-PCR method relative to untreated control; format: functional
[11] = system: Vitis vinifera; assay: Induction of epsilon-viniferin accumulation in Vitis vinifera cv. Cabernet Sauvignon foliar cuttings assessed per dry weight of plant at 0.5 g/L measured after 24 hr post dose by fluorimetry; format: functional
[12] = system: Vitis vinifera; assay: Induction of pterostilbene accumulation in Vitis vinifera cv. Cabernet Sauvignon foliar cuttings assessed per dry weight of plant at 0.5 g/L measured after 24 to 72 hr post dose by fluorimetry; format: functional
[13] = system: Vitis vinifera; assay: Induction of delta-viniferin accumulation in Vitis vinifera cv. Cabernet Sauvignon foliar cuttings assessed per dry weight of plant at 0.5 g/L measured after 24 hr post dose by fluorimetry; format: functional
[14] = system: Erysiphe necator; assay: Fungicidal activity against Erysiphe necator infected 72 hr compound pre-treated grapevine leaf disks assessed as reduction in fungal colonization measured 14 days post fungal inoculation; format: functional; parameters: scale not given: the % may be the effect or the level left
[15] = system: Erysiphe necator; assay: Fungicidal activity against Erysiphe necator infected 72 hr compound pre-treated grapevine foliar cuttings assessed as reduction in powdery mildew infection measured 14 days post fungal inoculation; format: functional; parameters: scale not given: the % may be the effect or the level left

## O=P(O)(O)CCCl [ETHEPHON]
[1]
  Activity: Active
[2]
  Activity: 133 nmol/g
[3]
  fold change (FC): 33
[4]
  fold change (FC): 22
[5]
  fold change (FC): 9
[6]
  Activity: 6 nmol/g
[7]
  fold change (FC): 10
[8]
  fold change (FC): 67
[9]
  Activity: 312 nmol/g
[10]
  fold change (FC): 11
[11]
  Activity: 58 nmol/g
[12]
  Activity: 10 nmol/g
[13]
  Activity: 12 nmol/g
[14]
  Activity: 64%
[15]
  Activity: 70%
